The values below are quoted from earlier work in patent US20080008727A1, “Compositions comprising adapalene dissolved with cyclodextrins” (GALDERMA RESEARCH & DEVELOPMENT, priority 2004, published 2008).

Structures are written as SMILES.

Consider `COc1ccc(-c2ccc3cc(C(=O)O)ccc3c2)cc1C12CC3CC(CC(C3)C1)C2` [adapalene, 6-[3-(1-adamantyl)-4-methoxyphenyl]-2-naphthoic acid], for which the “Solubility in water (in words)” value is listed as “practically insoluble in water”.
